Measured values published in ChEMBL document CHEMBL1201862, “PubChem BioAssay data set” (2004).
Activity calls are given as the source filed them. Rule as the data show it, for most assays here: actives have a measured IC50 and inactives only a lower limit.

Assays:
[1] = molecular target: T1, Neuropeptides B/W receptor type 1 (Homo sapiens, UniProt P48145); assay: Fluorescence-based dose response cell-based high throughput screening assay to identify antagonists of the G-protein coupled receptor 7 (GPR7). [Related pubchem assays: 1952 (Screening assay (GPR7 antagonists).), 1880 (Summary AID.)]; format: functional
[2] = molecular target: T2, Melanin-concentrating hormone receptor 1 (Homo sapiens, UniProt Q99705); assay: Fluorescence-based counterscreen for antagonists of the G-protein coupled receptor 7 (GPR7): cell-based high throughput dose response assay to identify antagonists of the melanin-concentrating hormone receptor 1 (MCHR1).; format: functional
[3] = molecular target: T2, Melanin-concentrating hormone receptor 1; assay: Late-stage fluorescence-based counterscreen for antagonists of the G-protein coupled receptor 7 (GPR7): cell-based dose response assay to identify antagonists of the melanin-concentrating hormone receptor 1 (MCHR1). [Related pubchem assays (depositor defined):AID1861, AID1880, AID1952, AID2148, AID2251, AID2257, AID485339]; format: functional
[4] = molecular target: T1, Neuropeptides B/W receptor type 1; assay: GPR7 antagonist potency, late-stage follow-up, cell-based, fluorescence, dose response (AID 463251); format: functional
[5] = molecular target: Eukaryotic translation initiation factor 4H (Homo sapiens, UniProt Q15056); assay: eIF4H inhibition in translation initiation, SAR follow-up (AID 435011); format: functional
[6] = molecular target: Polyadenylate-binding protein 1 (Homo sapiens, UniProt P11940); assay: PABP inhibition in translation initiation, SAR follow-up (AID 435018); format: functional
[7] = molecular target: Glyceraldehyde-3-phosphate dehydrogenase (Homo sapiens, UniProt P04406)
[8] = molecular target: Tyrosine-protein phosphatase non-receptor type 12 (Homo sapiens, UniProt Q05209); assay: SAR Selectivity Analysis of small molecule inhibitors of PEST using pCAP in a fluorescence assay. [Related pubchem assays (depositor defined):AID1779, AID1784, AID2135]; format: functional
[9] = molecular target: T3, Tyrosine-protein phosphatase non-receptor type 22 (Homo sapiens, UniProt Q9Y2R2); assay: SAR LYP1 Fluorescent Assay using OMFP substrate for In Vitro dose response studies - Set 3. [Related pubchem assays (depositor defined):AID1779, AID1784, AID2140, AID2686]; format: functional
T3 sequence (Q9Y2R2 whole entry): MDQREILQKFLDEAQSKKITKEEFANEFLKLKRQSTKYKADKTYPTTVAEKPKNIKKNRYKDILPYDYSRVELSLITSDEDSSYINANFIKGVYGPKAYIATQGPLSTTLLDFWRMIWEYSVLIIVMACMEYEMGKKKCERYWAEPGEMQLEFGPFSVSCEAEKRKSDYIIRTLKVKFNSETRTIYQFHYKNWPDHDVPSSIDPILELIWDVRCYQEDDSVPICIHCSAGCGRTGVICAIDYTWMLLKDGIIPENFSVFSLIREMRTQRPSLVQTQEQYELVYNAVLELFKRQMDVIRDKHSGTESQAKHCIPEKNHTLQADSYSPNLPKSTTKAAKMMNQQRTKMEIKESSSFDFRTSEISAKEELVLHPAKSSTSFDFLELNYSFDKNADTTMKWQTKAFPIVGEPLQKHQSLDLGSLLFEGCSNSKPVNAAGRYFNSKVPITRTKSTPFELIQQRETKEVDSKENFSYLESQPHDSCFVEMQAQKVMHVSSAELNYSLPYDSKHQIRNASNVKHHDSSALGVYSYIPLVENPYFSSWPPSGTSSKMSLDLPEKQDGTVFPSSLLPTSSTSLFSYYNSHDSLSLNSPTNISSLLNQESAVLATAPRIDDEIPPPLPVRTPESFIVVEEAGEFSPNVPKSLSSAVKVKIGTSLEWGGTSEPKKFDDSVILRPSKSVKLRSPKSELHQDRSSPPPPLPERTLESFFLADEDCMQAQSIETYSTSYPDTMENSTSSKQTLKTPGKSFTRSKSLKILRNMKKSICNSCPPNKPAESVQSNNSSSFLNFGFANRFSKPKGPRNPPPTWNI

[10] = molecular target: T4, Tyrosine-protein phosphatase non-receptor type 7 (Homo sapiens, UniProt P35236); assay: HePTP (PTPN7) phosphatase inhibitor potency, SAR follow-up, biochemical, set 2 (AID 449736); format: functional
T4 sequence (P35236 whole entry): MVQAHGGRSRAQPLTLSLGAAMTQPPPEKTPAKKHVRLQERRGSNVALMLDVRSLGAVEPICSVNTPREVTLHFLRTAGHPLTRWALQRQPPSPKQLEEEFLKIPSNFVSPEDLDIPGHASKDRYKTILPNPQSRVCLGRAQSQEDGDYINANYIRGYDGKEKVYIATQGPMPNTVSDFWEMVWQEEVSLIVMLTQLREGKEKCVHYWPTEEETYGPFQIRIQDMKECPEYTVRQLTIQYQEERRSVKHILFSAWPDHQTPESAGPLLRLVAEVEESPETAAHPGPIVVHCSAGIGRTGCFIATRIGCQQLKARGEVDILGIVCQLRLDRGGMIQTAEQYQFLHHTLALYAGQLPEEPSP

[11] = molecular target: T3, Tyrosine-protein phosphatase non-receptor type 22; assay: LYP (PTPN22) phosphatase inhibitor potency, SAR follow-up, biochemical, pCAP fluorogenic substrate, fluorescence, set 3 (AID 449727); format: functional
[12] = molecular target: T4, Tyrosine-protein phosphatase non-receptor type 7; format: functional
[13] = molecular target: T5, Dual specificity protein phosphatase 6 (Rattus norvegicus, UniProt Q64346)
T5 sequence (Q64346 whole entry): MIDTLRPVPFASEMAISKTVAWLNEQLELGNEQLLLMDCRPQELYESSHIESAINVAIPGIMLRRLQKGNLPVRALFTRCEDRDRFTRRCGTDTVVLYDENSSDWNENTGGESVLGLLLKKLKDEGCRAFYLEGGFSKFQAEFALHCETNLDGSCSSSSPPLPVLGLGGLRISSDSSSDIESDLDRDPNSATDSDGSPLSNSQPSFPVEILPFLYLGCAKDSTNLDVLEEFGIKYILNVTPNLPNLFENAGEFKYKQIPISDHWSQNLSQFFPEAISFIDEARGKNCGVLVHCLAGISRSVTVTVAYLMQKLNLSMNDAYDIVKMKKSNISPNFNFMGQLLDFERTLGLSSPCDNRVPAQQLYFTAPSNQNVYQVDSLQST

[14] = molecular target: T6, Dual specificity protein phosphatase 3 (Homo sapiens, UniProt P51452); assay: SAR VHR1 Fluorescent Assay for In Vitro dose response studies. [Related pubchem assays (depositor defined):AID1654, AID1661, AID1878, AID1992, AID2004, AID2070, AID2085]; format: functional
[15] = molecular target: T6, Dual specificity protein phosphatase 3; assay: MOA VHR1 Fluorescent secondary assay for identification of redox-state modulating compounds. [Related pubchem assays (depositor defined):AID1654, AID1661, AID1878, AID1957]
[16] = molecular target: T4, Tyrosine-protein phosphatase non-receptor type 7; assay: redox-dependent HePTP inhibition, mechanism study, biochemical, fluorescence (AID 2068); format: functional
[17] = molecular target: T5, Dual specificity protein phosphatase 6; format: functional

Chain of Glyceraldehyde-3-phosphate dehydrogenase (P04406 whole entry): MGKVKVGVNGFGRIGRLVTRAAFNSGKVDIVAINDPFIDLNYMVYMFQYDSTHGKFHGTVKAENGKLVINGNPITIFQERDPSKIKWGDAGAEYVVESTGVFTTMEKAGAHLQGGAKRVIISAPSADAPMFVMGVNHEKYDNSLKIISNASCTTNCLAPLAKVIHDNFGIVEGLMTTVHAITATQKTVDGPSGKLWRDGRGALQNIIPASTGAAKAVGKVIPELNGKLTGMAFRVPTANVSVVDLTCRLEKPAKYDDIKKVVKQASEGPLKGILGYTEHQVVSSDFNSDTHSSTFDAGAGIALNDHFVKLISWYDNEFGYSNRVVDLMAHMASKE
T2 sequence (Q99705 whole entry): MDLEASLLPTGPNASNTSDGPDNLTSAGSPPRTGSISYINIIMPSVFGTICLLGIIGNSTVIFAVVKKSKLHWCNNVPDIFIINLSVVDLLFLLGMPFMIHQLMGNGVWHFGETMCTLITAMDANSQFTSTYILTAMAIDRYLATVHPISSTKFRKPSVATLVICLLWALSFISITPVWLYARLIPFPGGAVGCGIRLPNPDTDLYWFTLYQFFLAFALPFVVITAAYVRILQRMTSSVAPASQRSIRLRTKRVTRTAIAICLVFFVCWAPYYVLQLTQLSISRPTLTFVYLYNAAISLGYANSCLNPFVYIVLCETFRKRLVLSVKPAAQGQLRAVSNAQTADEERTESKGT
T1 sequence (P48145 whole entry): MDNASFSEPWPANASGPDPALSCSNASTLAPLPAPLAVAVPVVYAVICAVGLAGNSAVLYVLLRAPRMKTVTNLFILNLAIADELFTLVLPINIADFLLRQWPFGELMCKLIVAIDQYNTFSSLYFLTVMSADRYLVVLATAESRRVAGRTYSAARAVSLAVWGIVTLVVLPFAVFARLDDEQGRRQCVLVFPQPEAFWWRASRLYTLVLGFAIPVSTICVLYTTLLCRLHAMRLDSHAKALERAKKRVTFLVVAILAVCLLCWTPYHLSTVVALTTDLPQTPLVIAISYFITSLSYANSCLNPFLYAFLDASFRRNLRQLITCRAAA
T6 sequence (P51452 whole entry): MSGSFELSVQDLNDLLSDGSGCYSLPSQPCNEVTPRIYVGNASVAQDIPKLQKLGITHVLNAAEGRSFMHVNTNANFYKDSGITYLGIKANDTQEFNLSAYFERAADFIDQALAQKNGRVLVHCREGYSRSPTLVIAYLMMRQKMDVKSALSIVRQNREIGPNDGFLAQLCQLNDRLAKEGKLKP
Chain of Polyadenylate-binding protein 1 (P11940 whole entry): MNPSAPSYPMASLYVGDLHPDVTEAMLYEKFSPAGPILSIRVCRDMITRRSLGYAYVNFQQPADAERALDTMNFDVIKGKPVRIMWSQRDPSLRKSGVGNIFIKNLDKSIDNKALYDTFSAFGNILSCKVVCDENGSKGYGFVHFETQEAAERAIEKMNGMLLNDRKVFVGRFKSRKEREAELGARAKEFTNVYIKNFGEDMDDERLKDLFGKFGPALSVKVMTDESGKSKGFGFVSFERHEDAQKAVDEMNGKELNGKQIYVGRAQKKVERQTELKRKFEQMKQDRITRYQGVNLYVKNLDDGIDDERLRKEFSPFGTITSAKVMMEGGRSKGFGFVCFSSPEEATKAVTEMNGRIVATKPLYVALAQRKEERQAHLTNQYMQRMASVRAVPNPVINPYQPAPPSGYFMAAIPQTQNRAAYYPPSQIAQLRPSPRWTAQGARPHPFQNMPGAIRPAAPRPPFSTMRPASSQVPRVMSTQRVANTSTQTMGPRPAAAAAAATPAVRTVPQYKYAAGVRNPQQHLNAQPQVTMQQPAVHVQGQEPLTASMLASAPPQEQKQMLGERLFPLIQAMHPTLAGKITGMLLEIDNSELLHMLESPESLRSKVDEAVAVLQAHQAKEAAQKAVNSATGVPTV
Chain of Tyrosine-protein phosphatase non-receptor type 12 (Q05209 whole entry): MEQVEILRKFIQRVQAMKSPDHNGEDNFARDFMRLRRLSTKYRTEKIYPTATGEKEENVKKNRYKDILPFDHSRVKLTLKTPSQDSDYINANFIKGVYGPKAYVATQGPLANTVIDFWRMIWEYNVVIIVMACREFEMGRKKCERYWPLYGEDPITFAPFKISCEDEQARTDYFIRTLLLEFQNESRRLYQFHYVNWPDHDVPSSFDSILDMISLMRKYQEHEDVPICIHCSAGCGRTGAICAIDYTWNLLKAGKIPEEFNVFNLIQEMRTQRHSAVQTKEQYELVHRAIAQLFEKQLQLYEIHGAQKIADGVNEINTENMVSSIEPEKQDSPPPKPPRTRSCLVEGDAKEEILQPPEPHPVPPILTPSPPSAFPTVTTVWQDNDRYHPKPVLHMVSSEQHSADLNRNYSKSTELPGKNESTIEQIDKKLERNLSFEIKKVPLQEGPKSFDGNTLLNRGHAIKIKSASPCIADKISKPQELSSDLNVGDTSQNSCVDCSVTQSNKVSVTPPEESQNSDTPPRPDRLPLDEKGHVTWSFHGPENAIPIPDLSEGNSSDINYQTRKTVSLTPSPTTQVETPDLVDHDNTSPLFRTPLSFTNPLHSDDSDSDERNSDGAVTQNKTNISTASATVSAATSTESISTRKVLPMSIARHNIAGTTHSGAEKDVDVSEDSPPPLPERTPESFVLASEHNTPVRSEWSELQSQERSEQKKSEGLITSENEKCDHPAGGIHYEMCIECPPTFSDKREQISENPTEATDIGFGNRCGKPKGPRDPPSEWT

Question: For `O=C(NCCCN1CCOCC1)c1ccc2c(c1)N(Cc1c(F)cccc1Cl)C(=O)c1ccccc1S2`, which IC50 [1] is on record?
Answer: 6.45 µM (active)

Question: And the IC50 [2]?
Answer: 16.2 µM (not active)

Question: And the IC50 [3]?
Answer: > 20 µM (inactive)

Question: What about the IC50 [4] of the same compound?
Answer: > 20 µM (inactive)

Question: How did the IC50 [5] turn out when `Cn1c(CC(=O)Nc2ccc(F)cc2)c(Sc2ccccc2)c2ccccc21` was run?
Answer: 44.5 µM (active)

Question: And the IC50 [6]?
Answer: > 100 µM (inactive)

Question: For `O=C(O)CN1C(=O)/C(=C\Nc2ccccc2)SC1=S`, which IC50 [7] is on record?
Answer: > 100 µM (not active)

Question: And the IC50 [8]?
Answer: 66.4 µM (active)

Question: What about the IC50 [9] of the same compound?
Answer: > 100 µM (inactive)

Question: What about the IC50 [10] of the same compound?
Answer: > 100 µM (inactive)

Question: What about the IC50 [11] of the same compound?
Answer: > 100 µM (inactive)

Question: `O=c1/c(=C/c2ccccc2Cl)sc2nc3cc(Br)cnc3n12` was tested. Which IC50 [12] did it give?
Answer: > 100 µM (not active)

Question: What about the IC50 [7] of the same compound?
Answer: > 100 µM (not active)

Question: What about the IC50 [13] of the same compound?
Answer: > 100 µM (inactive)

Question: What about the IC50 [14] of the same compound?
Answer: > 100 µM (inactive)

Question: What about the IC50 [15] of the same compound?
Answer: 0.181 µM (active)

Question: What about the IC50 [16] of the same compound?
Answer: 0.18 µM (active)

Question: And the IC50 [17]?
Answer: > 100 µM (inactive)
